Measurements published in ChEMBL document CHEMBL4152249, “Alkoxyphenylthiazoles with broad-spectrum activity against multidrug-resistant gram-positive bacterial pathogens” (Eur J Med Chem, 2018).
Converted amounts (≈) assume the structure as drawn. The source made the active and inactive calls. The rule behind the calls is not given here.

Experiments:
Staphylococcus aureus [1] = test: Antibacterial activity against methicillin-resistant Staphylococcus aureus 2658 RCMB after 20 hrs by broth microdilution assay; type: functional
Staphylococcus aureus [2] = test: Antibacterial activity against Staphylococcus aureus after 20 hrs by broth microdilution assay; type: functional
Staphylococcus aureus [3] = test: Bactericidal activity against methicillin-sensitive Staphylococcus aureus NRS107 incubated for 20 hrs followed by re-plating on tryptic soy agar plates at 37 degC for 18 hrs by broth microdilution assay; type: functional
Staphylococcus aureus [4] = test: Antibacterial activity against methicillin-resistant Staphylococcus aureus after 20 hrs by broth microdilution assay; type: functional
Staphylococcus aureus [5] = test: Bactericidal activity against linezolid-resistant Staphylococcus aureus NRS119 incubated for 20 hrs followed by re-plating on tryptic soy agar plates at 37 degC for 18 hrs by broth microdilution assay; type: functional
Staphylococcus aureus [6] = test: Bactericidal activity against Staphylococcus aureus USA400 NRS123 incubated for 20 hrs followed by re-plating on tryptic soy agar plates at 37 degC for 18 hrs by broth microdilution assay; type: functional
Staphylococcus aureus [7] = test: Bactericidal activity against Staphylococcus aureus USA300 NRS384 incubated for 20 hrs followed by re-plating on tryptic soy agar plates at 37 degC for 18 hrs by broth microdilution assay; type: functional
Staphylococcus aureus [8] = test: Antibacterial activity against methicillin-resistant Staphylococcus aureus NRS385 after 20 hrs by broth microdilution assay; type: functional; conditions: NRS385, 20 h
Staphylococcus aureus [9] = test: Bactericidal activity against methicillin-resistant Staphylococcus aureus NRS385 incubated for 20 hrs followed by re-plating on tryptic soy agar plates at 37 degC for 18 hrs by broth microdilution assay; type: functional
Staphylococcus aureus [10] = test: Antibacterial activity against methicillin-resistant Staphylococcus aureus NRS386 after 20 hrs by broth microdilution assay; type: functional; conditions: NRS386, 20 h
Staphylococcus aureus [11] = test: Bactericidal activity against methicillin-resistant Staphylococcus aureus NRS386 incubated for 20 hrs followed by re-plating on tryptic soy agar plates at 37 degC for 18 hrs by broth microdilution assay; type: functional
Staphylococcus aureus [12] = test: Antibacterial activity against vancomycin-resistant Staphylococcus aureus VRSA10 after 20 hrs by broth microdilution assay; type: functional; conditions: VRSA10, 20 h
Staphylococcus aureus [13] = test: Bactericidal activity against vancomycin-resistant Staphylococcus aureus VRSA10 incubated for 20 hrs followed by re-plating on tryptic soy agar plates at 37 degC for 18 hrs by broth microdilution assay; type: functional
Staphylococcus aureus [14] = test: Antibacterial activity against vancomycin-resistant Staphylococcus aureus VRSA12 after 20 hrs by broth microdilution assay; type: functional; conditions: VRSA12, 20 h
Staphylococcus aureus [15] = test: Bactericidal activity against vancomycin-resistant Staphylococcus aureus VRSA12 incubated for 20 hrs followed by re-plating on tryptic soy agar plates at 37 degC for 18 hrs by broth microdilution assay; type: functional
[16] = test system: Staphylococcus epidermidis; test: Antibacterial activity against methicillin-resistant Staphylococcus epidermidis NRS101 after 20 hrs by broth microdilution assay; type: functional; conditions: NRS101, 20 h
[17] = test system: Staphylococcus epidermidis; test: Bactericidal activity against methicillin-resistant Staphylococcus epidermidis NRS101 incubated for 20 hrs followed by re-plating on tryptic soy agar plates at 37 degC for 18 hrs by broth microdilution assay; type: functional
Enterococcus faecalis [18] = test: Antibacterial activity against vancomycin-resistant Enterococcus faecalis ATCC 51299 after 20 hrs by broth microdilution assay; type: functional; conditions: ATCC 51299, 20 h
Enterococcus faecalis [19] = test: Bactericidal activity against vancomycin-resistant Enterococcus faecalis ATCC 51299 incubated for 20 hrs followed by re-plating on tryptic soy agar plates at 37 degC for 18 hrs by broth microdilution assay; type: functional
Enterococcus faecium [20] = test: Antibacterial activity against vancomycin-resistant Enterococcus faecium ATCC 700221 after 20 hrs by broth microdilution assay; type: functional; conditions: ATCC 700221, 20 h
Enterococcus faecium [21] = test: Bactericidal activity against vancomycin-resistant Enterococcus faecium ATCC 700221 incubated for 20 hrs followed by re-plating on tryptic soy agar plates at 37 degC for 18 hrs by broth microdilution assay; type: functional
Listeria monocytogenes [22] = test: Antibacterial activity against Listeria monocytogenes ATCC 19111 after 20 hrs by broth microdilution assay; type: functional; conditions: ATCC 19111, 20 h
Listeria monocytogenes [23] = test: Bactericidal activity against Listeria monocytogenes ATCC 19111 incubated for 20 hrs followed by re-plating on tryptic soy agar plates at 37 degC for 18 hrs by broth microdilution assay; type: functional
Streptococcus pneumoniae [24] = test: Antibacterial activity against cephalosporin-resistant Streptococcus pneumoniae ATCC 51916 after 20 hrs by broth microdilution assay; type: functional; conditions: ATCC 51916, 20 h
Streptococcus pneumoniae [25] = test: Bactericidal activity against cephalosporin-resistant Streptococcus pneumoniae ATCC 51916 incubated for 20 hrs followed by re-plating on tryptic soy agar plates at 37 degC for 18 hrs by broth microdilution assay; type: functional
Streptococcus pneumoniae [26] = test: Antibacterial activity against methicillin-resistant Streptococcus pneumoniae ATCC 700677 after 20 hrs by broth microdilution assay; type: functional; conditions: ATCC 700677, 20 h
Streptococcus pneumoniae [27] = test: Bactericidal activity against methicillin-resistant Streptococcus pneumoniae ATCC 700677 incubated for 20 hrs followed by re-plating on tryptic soy agar plates at 37 degC for 18 hrs by broth microdilution assay; type: functional
Streptococcus pneumoniae [28] = test: Ratio of MBC to MIC for methicillin-resistant Streptococcus pneumoniae ATCC 700677; type: functional
Staphylococcus aureus [29] = test: Bactericidal activity against Staphylococcus aureus USA400 assessed as reduction in colony forming unit at 3 to 6 times MIC treated for 2 hrs followed by re-plating on tryptic soy agar plates at 37 degC for 18 to 20 hrs by broth microdilution assay; type: functional; set-up: scale not given: the % may be the effect or the level left
Staphylococcus aureus [30] = test: Antibacterial activity against methicillin-resistant Staphylococcus aureus USA400 NRS123 after 14 passages over 2 weeks by broth microdilution method; type: functional, organism-based
Caco-2 = test: Cytotoxicity against human Caco2 cells assessed as effect on cell viability up to 64 ug/ml after 2 hrs by MTS assay; type: cell-based; conditions: caco-2, 2 h
[31] = Selectivity index, ratio of compound effect for human Caco2 cells at maximum non-toxic concentration concentration to MIC for methicillin-resistant Staphylococcus epidermidis NRS101; type: toxicity; conditions: Caco-2 cells, read-out: Selectivity Index
[32] = Selectivity index, ratio of compound effect for human Caco2 cells at maximum non-toxic concentration concentration to MIC for vancomycin-resistant Enterococcus faecalis ATCC 51299; type: toxicity; conditions: Caco-2 cells, read-out: Selectivity Index
[33] = Selectivity index, ratio of compound effect for human Caco2 cells at maximum non-toxic concentration concentration to MIC for vancomycin-resistant Enterococcus faecium ATCC 700221; type: toxicity; conditions: Caco-2 cells, read-out: Selectivity Index
[34] = Selectivity index, ratio of compound effect for human Caco2 cells at maximum non-toxic concentration concentration to MIC for Listeria monocytogenes ATCC 19111; type: toxicity; conditions: Caco-2 cells, read-out: Selectivity Index
[35] = Selectivity index, ratio of compound effect for human Caco2 cells at maximum non-toxic concentration concentration to MIC for cephalosporin-resistant Streptococcus pneumoniae ATCC 51916; type: toxicity; conditions: Caco-2 cells, read-out: Selectivity Index
[36] = Selectivity index, ratio of compound effect for human Caco2 cells at maximum non-toxic concentration concentration to MIC for methicillin-resistant Streptococcus pneumoniae ATCC 700677; type: toxicity; conditions: Caco-2 cells, read-out: Selectivity Index
[37] = Half life in Sprague-Dawley rat at 5 uM, iv administered as single bolus dose by LC-MS/MS analysis; type: ADME, organism-based; conditions: in vivo
[38] = Clearance in Sprague-Dawley rat at 5 uM, iv administered as single bolus dose by LC-MS/MS analysis; type: ADME, organism-based; conditions: in vivo
[39] = Terminal phase volume of distribution at […] in Sprague-Dawley rat at 5 uM, iv administered as single bolus dose by LC-MS/MS analysis; type: ADME, organism-based; conditions: in vivo, read-out: Vbeta
[40] = Volume of distribution at steady state in Sprague-Dawley rat at 5 uM, iv administered as single bolus dose by LC-MS/MS analysis; type: ADME, organism-based; conditions: in vivo, read-out: Vdss
[41] = AUC in Sprague-Dawley rat at 5 uM, iv administered as single bolus dose by LC-MS/MS analysis; type: ADME, organism-based; conditions: in vivo

SMILES: CCCCCCCOc1ccc(-c2nc(C)c(-c3ccnc(NC(=N)N(C)C)n3)s2)cc1
- MIC (Staphylococcus aureus [1]): 1.56 µg/mL (≈ 3.45 µM)
- MIC (Staphylococcus aureus [2]): 4 µg/mL (≈ 8.84 µM)
- MBC (Staphylococcus aureus [3]): 4 µg/mL (≈ 8.84 µM)
- MIC (Staphylococcus aureus [4]): 4 to 8 µg/mL (≈ 8.84 to 17.7 µM)
- MBC (Staphylococcus aureus [5]): 8 µg/mL (≈ 17.7 µM)
- MBC (Staphylococcus aureus [6]): 8 µg/mL (≈ 17.7 µM)
- MBC (Staphylococcus aureus [7]): 4 µg/mL (≈ 8.84 µM)
- MIC (Staphylococcus aureus [8]): 8 µg/mL (≈ 17.7 µM)
- MBC (Staphylococcus aureus [9]): 8 µg/mL (≈ 17.7 µM)
- MIC (Staphylococcus aureus [10]): 4 µg/mL (≈ 8.84 µM)
- MBC (Staphylococcus aureus [11]): 4 µg/mL (≈ 8.84 µM)
- MIC (Staphylococcus aureus [12]): 4 µg/mL (≈ 8.84 µM)
- MBC (Staphylococcus aureus [13]): 4 µg/mL (≈ 8.84 µM)
- MIC (Staphylococcus aureus [14]): 4 µg/mL (≈ 8.84 µM)
- MBC (Staphylococcus aureus [15]): 4 µg/mL (≈ 8.84 µM)
- MIC [16]: 4 µg/mL (≈ 8.84 µM)
- MBC [17]: 4 µg/mL (≈ 8.84 µM)
- MIC (Enterococcus faecalis [18]): 8 µg/mL (≈ 17.7 µM)
- MBC (Enterococcus faecalis [19]): 8 µg/mL (≈ 17.7 µM)
- MIC (Enterococcus faecium [20]): 8 µg/mL (≈ 17.7 µM)
- MBC (Enterococcus faecium [21]): 8 µg/mL (≈ 17.7 µM)
- MIC (Listeria monocytogenes [22]): 4 µg/mL (≈ 8.84 µM)
- MBC (Listeria monocytogenes [23]): 4 µg/mL (≈ 8.84 µM)
- MIC (Streptococcus pneumoniae [24]): 8 µg/mL (≈ 17.7 µM)
- MBC (Streptococcus pneumoniae [25]): 8 µg/mL (≈ 17.7 µM)
- MIC (Streptococcus pneumoniae [26]): 4 µg/mL (≈ 8.84 µM)
- MBC (Streptococcus pneumoniae [27]): 8 µg/mL (≈ 17.7 µM)
- Ratio (Streptococcus pneumoniae [28]): 1
- Activity (Staphylococcus aureus [29]): 100%
- Activity (Staphylococcus aureus [30]): Active
- Activity (Caco-2): Non-Toxic
- selectivity ratio [31]: 7 to 82
- selectivity ratio [32]: 7 to 82
- selectivity ratio [33]: 7 to 82
- selectivity ratio [34]: 7 to 82
- selectivity ratio [35]: 7 to 82
- selectivity ratio [36]: 7 to 82
- half-life at 5 µM [37]: 4 h
- clearance at 5 µM [38]: 29.2 mL/min
- Vd at 5 µM [39]: 10.4 L
- Vd at 5 µM [40]: 4.36 L
- AUC at 5 µM [41]: 1140 ng·h/mL
